Where a name gives a salt, the structure may show the parent alone.
Key:
[1] = system: reserpine induced hypothermia; test: antagonism of reserpine (5 mg/kg i.p.) induced hypothermia (antireserpine/antidepressant activity) in mice; format: in vivo; details: for Antireserpine Activity in Mice, Relative Potency: reserpine 5 mg/kg i.p., Amitriptyline = 1; for antidepressant activity (in words): reserpine hypothermia
Procedure: (§1) The compounds were administered intraperitoneally and activities of the compounds were compared with those of Amitriptyline.

[2] = in vivo; details: mouse, ip
[3] = system: electroshock induced tonic extensor; test: anticonvulsant activity, antagonism of electroshock induced tonic extensor in mice; format: in vivo; details: Mus musculus, ip, dose preventing 50% of response, read-out: Anti-Convulsant Activity ED50
Procedure: as §1

[4] = system: neurological deficit as measured by traction test; details: mouse, in vivo, ip
Procedure: as §1

[5] = system: mice; details: i.p.
[6] = system: spontaneous motor activity; test: CNS depressant activity, spontaneous motor activity measured by ANIMEX apparatus in mice; details: Mus musculus, ip, read-out: Spontaneous Motor Activity Depression ED50
Procedure: as §1

[7] = system: tremorine induced tremor; details: mouse, in vivo, ip
Procedure: as §1

[8] = system: neurological deficit as measured by traction test; test: CNS depressant activity, neurological deficit by traction test (muscle relaxant action) in mice; details: Mus musculus, ip, read-out: Muscle Relaxant Action ED50
Procedure: as §1

[9] = system: tremorine induced tremor; test: central anticholinergic effect, tremorine induced tremor in mice; details: Mus musculus, ip, read-out: Antitremorine Effect ED50
Procedure: as §1

| Structure (SMILES) | Antireserpine Activity in Mice, Relative Potency [1] | antidepressant activity (in words) [1] | LD50 [2] | further results |
| --- | --- | --- | --- | --- |
| CN(C)CCCOc1ccccc1Oc1ccccc1 [2-(3-dimethylaminopropoxy)diphenyl ether hydrochloride, reference compound] | 0.14 |  |  |  |
| CNCCCOc1ccccc1Oc1ccccc1 [2-(3-methylaminopropoxy)diphenyl ether hydrochloride, reference compound] | 0.28 |  |  |  |
| NCCCCOc1ccccc1Oc1ccccc1 [2-(4-aminobutoxy)diphenyl ether hydrochloride] | 0.28 |  |  |  |
| CN(C)CCCCOc1ccccc1Oc1ccccc1 [2-(4-dimethylaminobutoxy)diphenyl ether hydrochloride] | 0.58 | best activity of all compounds of the present invention tested | 92 mg/kg |  |
| CNCCCCOc1ccccc1Oc1ccccc1 [2-(4-methylaminobutoxy)diphenyl ether hydrochloride] | 1.10 | best activity of all compounds of the present invention tested | 100 mg/kg | ED50 [3]: 32 mg/kg; CNS depressant action (in words) [4]: weak; toxicity (in words) [5]: low toxicity; ED50 [6]: 60 mg/kg; antireserpine activity compared with Amitriptyline (in words) ([1]; versus Amitriptyline): comparable to that of Amitriptyline; anticholinergic action (in words) [7]: weak; ED50 [8]: 60 mg/kg; ED50 [9]: 30 mg/kg |
| c1ccc(Oc2ccccc2OCCCCN2CCOCC2)cc1 [2-(4-morpholinobutoxy)diphenyl ether hydrochloride, reference compound] | 0.21 |  |  |  |
| CN(C)CCCCCOc1ccccc1Oc1ccccc1 [2-(5-dimethylaminopentyloxy)diphenyl ether hydrochloride] | 0.24 |  |  |  |
| CNCCCCCOc1ccccc1Oc1ccccc1 [2-(5-methylaminopentyloxy)diphenyl ether hydrochloride] | 0.57 | best activity of all compounds of the present invention tested | 85 mg/kg |  |
| CN(C)CCC=C1c2ccccc2CCc2ccccc21 [Amitriptyline, reference compound] |  |  |  | LD50 ([5]; Litchfield-Wilcoxon method): 65 mg/kg i.p. |

From patent US4061776A, “Pharmaceutically active 2-omega-aminoalkoxydiphenyl ethers” (Mitsubishi Chemical Industries Ltd., priority 1976, dated 1977)
